For 7 molecules, IC50 results are on record in ChEMBL document CHEMBL5728228, “Inhibitors of cyclin-dependent kinases” (2021).

The test can be described thus: Protein kinase assay (Condition B: Thiol-free Conditions): The IC50 profile of compounds was determined using one protein kinase in a customized, thiol free assay. […] Prior to testing, the 1×10−03 M stock solutions in column 2 of the master plates were subjected to a serial, semi-logarithmic dilution using 100% DMSO as a solvent. […] Column 1 and 7 were filled with 100% DMSO as controls. Subsequently, 2×10 microliter from each well of the serial diluted copy plates were aliquoted with a 96 channel pipettor into two identical sets of “compound dilution plates”. All plates were barcoded for automated identification and tracking purposes. […] All compounds were stored as powder until being solubilized in DMSO. Solubilized compounds were stored as 1×10−02 M/100% DMSO stock solutions. Prior to the assay process, 90 microliters of H2O were added to each well of a set of compound dilution plates. To minimize potential precipitation, the H2O was added to each plate only a few minutes before the transfer of the compound solutions into the assay plates. Each plate was shaken thoroughly, resulting in compound dilution plates with a final of 10% DMSO. For each assay, 5 microliters of solution from each well of the compound dilution plates/10% DMSO were transferred into the assay plate. The final volume of the assay was 50 μl. All compounds were tested at 10 final assay concentrations in the range from 1×10−05 M to 3×10−10 M, in singlicate. The final DMSO concentration in the reaction cocktails was 1% in all cases. A radiometric protein kinase assay (33PanQinase® Activity Assay) was used for measuring the kinase activity of the protein kinase. All kinase assays were performed in 96-well FlashPlates™ from PerkinElmer (Boston, Mass., USA) in a 50 microliter reaction volume. The reaction cocktail was pipetted in four steps in the following order: 20 microliter of assay buffer (standard buffer)·5 microliter of ATP solution (in H2O)·5 microliter of test compound (in 10% DMSO)·20 microliter enzyme/substrate mix. […] For all experiments labeled as “Thiol-free”, all glutathione was exchanged from protein preparations so as to be removed from the assay and final buffer conditions contained no thiol-containing reagents. This was done so there would be no interference with the key cysteines in the proteins of interest.

pIC50: −log10 of the molar value.

For `C=CC(=O)Nc1ccc(C(=O)N2CC[C@@H](Nc3ncc(Br)c(OC)n3)C2)cc1`, the pIC50 (commonly the negative decadic logarithm of the IC50, by convention in mol/L) is more than 7.00.

The molecule `C=CC(=O)Nc1ccc(C(=O)N2CC[C@@H](Nc3ncc(Br)cn3)C2)cc1` gave a negative logarithm of the IC50 (pIC50) of more than 7.00. Under `CCC(=O)Nc1ccc(C(=O)N2CC[C@@H](Nc3ncc(Br)c(OC)n3)C2)cc1` stands more than 7.00; under `C=CC(=O)Nc1ccc(C(=O)N2CC[C@@H](Nc3cc(OC)c(Cl)cn3)C2)cc1`, more than 7.00; under `C=CC(=O)N(C)c1ccc(C(=O)N2CC[C@@H](Nc3ncc(Cl)c(OC)n3)C2)cc1`, more than 7.00. The same measure for `C=CC(=O)Nc1ccc(C(=O)N2CC[C@@H](Nc3ncc(Cl)c(OC)n3)C2)cc1C`: more than 7.00.

The molecule `C=CC(=O)Nc1ccc(C(=O)N2CC[C@@H](Nc3ncc(Cl)c(OC)n3)C2)cc1` gave a pIC50 of more than 7.00.
